These are literature values, as cited in patent US20040120916A1, “Contact lens care compositions, methods of use and preparation which protect ocular tissue membrane integrity” (ADVANCED MEDICAL OPTICS, INC., priority 2002, published 2004).

Molecules are shown by their SMILES.

Data set [1] relates to rat large-intestinal tissue. Particulars: decrease caused by sodium laurate.
Data set [2] deals with human corneal epithelial cells. Conditions: 450 mOsm/kg hypertonic medium; 1 mM taurine (0.0125 w/v %).
Data set [3] concerns lipopolysaccharide (LPS)-intoxicated rats. Conditions: LPS rat stomachs irrigated with acid solution.
The test system of data set [4] is rat large-intestinal tissue.

In the case of `NCCS(=O)(=O)O` [taurine], the “transepithelial electrical resistance, a measure of cell membrane integrity” value in data set [1] was “significantly suppressed the decrease”. In addition, in data set [2], the cell survival entry is given as “significantly increased cell survival”. Besides, the “ulcerogenic parameters including mucosal histamine concentrations” value in data set [3] is given as “dose-dependent attenuations”. Further, the “release of histamine enhanced by sodium laurate” value in data set [4] is “suppress the release of histamine”.
